From patent US6641840B2, “Sustained release formulations for growth hormone secretagogues” (Pfizer Inc., priority 2000, dated 2003)

Legend:
[1] = tested on: rat pituitary cells; test: Pituitary cell desensitization - growth hormone release assay; type: cell-based; conditions: for GH release: treatment 10 nM Compound A 15 min
Experimental: The experiment was designed so that cultures were exposed to a growth hormone secretagogue for 60 min, then growth hormone release was measured during a subsequent 15 min exposure to the same or different growth hormone secretagogue.
Anterior pituitary glands from male Wistar rats (150-175 g, Charles River, Laboratories, Wilmington, Mass.) were collected in Hank's Balanced Salt Solution (#14170, Life Technologies, Gaithersburg, Md.). Glands were minced with a scalpel, then incubated with bacterial protease (Type IX, EC3.4.24.4, #P-6141, Sigma Chemicals, Milwaukee, Wis.) at 10 U/ml to release individual cells. Cells were pelleted by centrifugation at 200×g for 15 min, then suspended in culture medium and plated at a density of 6.0-6.5×10^4 cells per 0.5 ml per well in 48-well tissue culture plates (#3848, Costar Corporation, Cambridge, Mass.). Culture medium consisted of D-MEM (Dulbecco's Modified Eagle Medium) with high glucose and sodium bicarbonate (#11965) supplemented with 10% heat-inactivated horse serum (#26050, Life Technologies, Gaithersburg, Md.), 2.5% fetal bovine serum (#16140, Life Technologies, Gaithersburg, Md.), 0.1 mM MEM non-essential amino acids (#11140, Life Technologies, Gaithersburg, Md.), 100 U/ml nystatin (#15340, Life Technologies, Gaithersburg, Md.) and 50 ug/ml gentamicin sulfate (#15750, Life Technologies, Gaithersburg, Md.). Cultures were maintained for 3-4 days in a humidified, 5% CO2/95% air incubator at 37° C. prior to performing assays for growth hormone release.
For growth hormone release assays, cultures were pre-equilibrated at 37° C. in pre-warmed release medium for 1 h in the presence of a growth hormone secretagogue or excipient (Pretreatment). Release medium consisted of Phenol Red-free D-MEM without bicarbonate (#23800, Life Technologies, Gaithersburg, Md.) supplemented with 25 mM N-[2-hydroxyethyl]piperazine-N′-[2-ethanesulfonic acid] (HEPES), 4.5 g/L glucose, 0.11 g/L sodium pyruvate, 0.584 g/L […] and 0.5% bovine serum albumin (#A-7888, Sigma Chemicals, Milwaukee, Wis.), adjusted to pH 7.4. After pretreatment, the medium was removed and replaced with fresh pre-warmed release medium containing a growth hormone secretagogue or excipient at 0.5 ml/well for 15 min (Treatment). Medium from the Treatment was collected, centrifuged to remove any cells, then assayed for growth hormone content by a conventional double-antibody radioimmunoassay using monkey anti-growth hormone antisera (NIDDK anti-rGH-S-5) and reference rat growth hormone standard (NIDDK-rGH-RP) from Dr. A. F. Parlow, Harbor-UCLA Medical Center, Torrance, Calif. Immune complexes were precipitated using goat anti-monkey immunoglobulin G (#55418, Cappel, Durham, N.C.).
Growth hormone secretagogue solutions were prepared at 1000 times the desired concentration and diluted into pre-warmed release medium immediately before use. Peptides such as His-D-Trp-Ala-Trp-Ala-Trp-D-Phe-Lys-NH2 (GHRP-6, #8061, Peninsula Laboratories, Belmont, Calif.) and rat growth hormone releasing factor (GHRH, #8068, Peninsula Laboratories, Belmont, Calif.) were dissolved at 100 μM in 4 mM acetic acid, 10% ethanol, 0.1% bovine serum albumin; other growth hormone secretagogues were dissolved at 5 mM in dimethyl sulfoxide.

[2] = One compartment pharmacokinetic model fitted to observed human plasma concentrations
Excerpt: A one compartment pharmacokinetic model was constructed using the following equations (I Think, Stella, HPS, Hanover, N.H.): […]
where ba is bioavailability (1.0), Vdist_liter is volume of distribution in units of liters (0.75), ka_hr1 is absorption rate constant in units of reciprocal hr (1.3), and thalf_hr is the plasma concentration vs. time elimination half-life in units of hr (2.5).
These parameters were then fixed to the values noted above for all subsequent simulations.

[3] = tested on: insulin-like growth factor binding protein 3 (IGFBP-3); test: Clinical study: IGFBP-3; type: in vivo, human; conditions: first leg, immediate release dosing
Excerpt: (All dosage forms in this part of the study were immediate release dosage forms.)
The primary efficacy endpoint was the percentage change from baseline in IGF-1. Secondary outcomes included insulin-like growth factor binding protein 3 (IGFBP-3), cholesterol subfractions, and percent changes in total adipose and total lean tissue. Changes in each of the secondary efficacy measures over time were examined systematically either graphically or in tabular form and summarized using appropriate descriptive statistics as is well known in the art.

[4] = fitted one compartment model, humans

CN1N=C2CCN(C(=O)[C@@H](COCc3ccccc3)NC(=O)C(C)(C)N)C[C@@]2(Cc2ccccc2)C1=O.O=C(O)C(O)C(O)C(=O)O [Compound A]
growth hormone release response ([1]; after pretreatment with GHRH): stimulation of growth hormone release | growth hormone release response ([1]; after pretreatment with GHRP-6): not | GH release ([1]; pretreatment 100 nM GHRH 60 min): 36.99 ± 2.43 ng/mL/15 min | GH release ([1]; pretreatment 100 nM GHRP-6 60 min): 7.64 ± 1.92 ng/mL/15 min | GH release ([1]; pretreatment none): 25.17 ± 4.32 ng/mL/15 min | absorption rate constant (ka_hr1) [2, 4]: 1.3 reciprocal hr | plasma concentration vs. time elimination half-life (thalf_hr) [2, 4]: 2.5 h | volume of distribution (Vdist_liter) [2, 4]: 0.75 L | bioavailability (ba) ([2]; fitted to observed plasma concentrations after oral 10, 3 and 0.3 mg doses to humans): 1.0 | IGFBP3 [3]: increased
